Test results reported in patent publication US7416728B2, “Growth blocking agents” (Kyto Biopharma, Inc., priority 1992, dated 2008).

Tests used:
Myelocytic leukemia = details: drug combined with vitamin B12 depletion (nitrous oxide); myelocytic leukemia/rats; cited from earlier work
Acute leukemia = details: drug combined with vitamin B12 depletion (nitrous oxide); acute leukemia/rats; cited from earlier work
[1] = tested on: Raji Burkitt lymphoma cells; test: Cell viability by reduction of tetrazolium dye, three days, with and without methotrexate; assay type: cell-based, human; details: 100% lysis control = .047
Method: Antibody D2/20 at a range of concentrations is incubated with Raji Burkitt lymphoma cells in microtiter plates for three days with and without chemotherapeutic drugs. Cell viability is measured by reduction of tetrazolium dye. Only viable cells metabolize the dye to an insoluble, colored product which is subsequently solubilized and read in a spectrophotometer.

[2] = tested on: Raji Burkitt lymphoma cells; test: Subcutaneous Raji Burkitt lymphoma in nu/nu mice, tumor size; assay type: in vivo
Method: Nu/nu mice are injected subcutaneously with 1 million Raji Burkitt lymphoma cells. After two weeks, barely palpable nodules are present at the injection site. Measurements are made in three dimensions with a planarimeter and equally sized tumors assigned to experimental groups of 10 mice. […] Therapy is administered once weekly. Controls of antibody and drug alone, as well as vehicle controls, are included. Mice are monitored visually for toxicity, death, and tumor size weekly for 8 weeks, at which time the experiment is terminated, the mice sacrificed, and the tumors removed and weighed.

O=c1[nH]cc(F)c(=O)[nH]1 [Clone 5-FU, 5-fluorouracil]
Therapeutic Results (Myelocytic leukemia): additive
Therapeutic Results (Acute leukemia): additive

CN(Cc1cnc2nc(N)nc(N)c2n1)c1ccc(C(=O)N[C@@H](CCC(=O)O)C(=O)O)cc1 [Methotrexate, methotrexate]
cell viability, tetrazolium dye reading ([1]; antibody 0, methotrexate 0.1 micrograms/ml): .993
cell viability, tetrazolium dye reading ([1]; antibody 0, methotrexate 1 micrograms/ml): .798
average of serial tumor measurements converted to weight ([2]; week 1, methotrexate 5 Milligrams/M^2 i.v. once weekly): .07 grams
average of serial tumor measurements converted to weight ([2]; week 1, methotrexate 10 Milligrams/M^2 i.v. once weekly): .05 grams
average of serial tumor measurements converted to weight ([2]; week 1, methotrexate 50 Milligrams/M^2 i.v. once weekly): .04 grams
average of serial tumor measurements converted to weight ([2]; week 2, methotrexate 5 Milligrams/M^2 i.v. once weekly): .14 grams
average of serial tumor measurements converted to weight ([2]; week 2, methotrexate 10 Milligrams/M^2 i.v. once weekly): .12 grams
average of serial tumor measurements converted to weight ([2]; week 2, methotrexate 50 Milligrams/M^2 i.v. once weekly): .10 grams
average of serial tumor measurements converted to weight ([2]; week 3, methotrexate 5 Milligrams/M^2 i.v. once weekly): .43 grams
average of serial tumor measurements converted to weight ([2]; week 3, methotrexate 10 Milligrams/M^2 i.v. once weekly): .30 grams
average of serial tumor measurements converted to weight ([2]; week 3, methotrexate 50 Milligrams/M^2 i.v. once weekly): .25 grams
average of serial tumor measurements converted to weight ([2]; week 4, methotrexate 5 Milligrams/M^2 i.v. once weekly): .70 grams
average of serial tumor measurements converted to weight ([2]; week 4, methotrexate 10 Milligrams/M^2 i.v. once weekly): .53 grams
average of serial tumor measurements converted to weight ([2]; week 4, methotrexate 50 Milligrams/M^2 i.v. once weekly): .41 grams
average of serial tumor measurements converted to weight ([2]; week 5, methotrexate 5 Milligrams/M^2 i.v. once weekly): 1.2 grams
average of serial tumor measurements converted to weight ([2]; week 5, methotrexate 10 Milligrams/M^2 i.v. once weekly): .92 grams
average of serial tumor measurements converted to weight ([2]; week 5, methotrexate 50 Milligrams/M^2 i.v. once weekly): .73 grams
average of serial tumor measurements converted to weight ([2]; week 6, methotrexate 5 Milligrams/M^2 i.v. once weekly): 2.6 grams
average of serial tumor measurements converted to weight ([2]; week 6, methotrexate 10 Milligrams/M^2 i.v. once weekly): 2.1 grams
average of serial tumor measurements converted to weight ([2]; week 6, methotrexate 50 Milligrams/M^2 i.v. once weekly): 1.4 grams
average of serial tumor measurements converted to weight ([2]; week 7, methotrexate 5 Milligrams/M^2 i.v. once weekly): 4.8 grams
average of serial tumor measurements converted to weight ([2]; week 7, methotrexate 10 Milligrams/M^2 i.v. once weekly): 4.8 grams
average of serial tumor measurements converted to weight ([2]; week 7, methotrexate 50 Milligrams/M^2 i.v. once weekly): 2.3 grams
average of serial tumor measurements converted to weight ([2]; week 8, methotrexate 5 Milligrams/M^2 i.v. once weekly): 7.2 grams
average of serial tumor measurements converted to weight ([2]; week 8, methotrexate 10 Milligrams/M^2 i.v. once weekly): 6.9 grams
average of serial tumor measurements converted to weight ([2]; week 8, methotrexate 50 Milligrams/M^2 i.v. once weekly): 3.4 grams
Therapeutic Results (Myelocytic leukemia): synergistic
Therapeutic Results (Acute leukemia): synergistic

NC1(C(=O)O)CCCC1 [cycloleucine]
Therapeutic Results (Myelocytic leukemia): additive
Therapeutic Results (Acute leukemia): synergistic
